One series has as its system db/db mice. In words: Pharmacodynamic study using db/db mice (blood glucose after subcutaneous dosing). Type of series: in vivo. To be noted: 30 nmol/kg subcutaneous. The procedure:
The efficacy and duration of action were measured after dosing of 30 nmol/kg to db/db mice. Male db/db mice were shipped from Taconic, Denmark at the age of 8-10 weeks. From the time of arrival, the mice were housed under standard conditions but at 24° C. The mice were kept 10 per cage until experimentation with free access to standard chow (Altromin, Brogaarden APS., Denmark) and tap water at a normal day: light cycle (light on at 6 am). […] After this, the mice were euthanized.
After an acclimatisation period of 1 week, the blood glucose was measured by sampling from the tail tip capillary. In brief, 5 μl blood was sampled in heparinised glass capillary tubes and immediately suspended in 250 μl EBIO buffer solution (Eppendorf, Germany) in an 1.5 ml Eppendorf tube. The blood glucose concentration was measured by the glucose oxidase method at the EBIO Plus Auto analyser (Eppendorf, Germany).
The cut of value for blood glucose was 10 mM. When evaluating the mice, it was considered essential, that all 42 mice entering the experiment had blood glucose values above 10 mM, but also that the inter-mice variance was small. Therefore, if many mice were not severely diabetic, whereas some were, the start up of experiments was postponed one week and new basal blood glucose measurements were made.
Based on the basal blood glucose values, the mice were allocated to 7 groups of n=6 with matching group mean blood glucose values.
On the day of testing the basal blood glucose morning values were assessed as described above and the basal body weight of each mouse was assessed. A time 0, the compound was dosed subcutaneously in the scruff of the neck (dosing volume app. 300 μl/50 g mouse).
The blood glucose values were followed up to 48 hours (time 1, 3, 6, 24 and 48 h) and the terminal body weight was assessed.
All data were entered into Graphpad Prism where mean blood glucose and mean delta body weights were calculated.

The next series deals with T1, human GLP-1 receptor (Homo sapiens, UniProt P43220).
T1 construct: expressed in transfected cells; host or cells: BHK cells, clone BHK-467-12A; plasma membrane preparation
T1 sequence (P43220 24-463): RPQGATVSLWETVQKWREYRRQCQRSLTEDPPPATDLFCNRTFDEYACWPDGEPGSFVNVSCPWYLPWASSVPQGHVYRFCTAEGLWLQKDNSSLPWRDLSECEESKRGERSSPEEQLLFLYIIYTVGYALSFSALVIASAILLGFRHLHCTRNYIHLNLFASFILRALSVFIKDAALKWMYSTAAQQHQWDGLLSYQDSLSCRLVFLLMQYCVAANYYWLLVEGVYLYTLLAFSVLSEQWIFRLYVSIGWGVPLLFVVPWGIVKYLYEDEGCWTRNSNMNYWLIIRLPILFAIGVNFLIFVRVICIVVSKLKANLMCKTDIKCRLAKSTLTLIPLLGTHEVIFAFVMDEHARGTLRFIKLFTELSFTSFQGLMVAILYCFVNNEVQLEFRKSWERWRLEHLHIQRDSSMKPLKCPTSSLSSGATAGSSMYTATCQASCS
The series can be described thus: Functional receptor assay: cAMP formation in plasma membranes of BHK cells expressing the cloned human GLP-1 receptor (GLP1cAMPma). It is filed as biochemical. The gist of the method:
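Membranes from BHK cells expressing human GLP-1 receptor (6 μg) were incubated 3 h at room temperature in Tris/HEPES buffer pH 7.4 with 1 mM ATP, 1 μM GTP and 0.5 mM IBMX. cAMP was quantified by AlphaScreen competition with biotinyl-cAMP. EC50 came from a four-parameter logistic fit.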
For orientation: cAMP levels reflect the balance of adenylyl cyclase and phosphodiesterase activity.

A short description of series [1]: Chemical stability of solubilised peptide at 40° C., impurities monitored by RP-HPLC/UPLC. It is filed as physicochemical. Particulars: 2.5 weeks, 100 nmol peptide in 1 ml phosphate buffered saline, pH 7.4. The procedure: The chemical stability of solubilised acylated exendin-4 compounds were monitored by RP-HPLC following incubation at […]
The formation of exendin analogue related impurities relative to control samples stored in the freezer were monitored with a Waters UPLC system. Samples were applied to Acquity UPLC BEH C18 (1.7 μm) 2.1×50 mm column and eluted at a flow rate of 0.9 ml/min with linear stepwise gradients of acetonitrile in 0.1% trifluoroacetic acid (from 5 to 100% acetonitrile for 10 min, and from 100 to 5% acetonitrile for 1 min). The column was heated to 30 C and detection was performed at 214 nm.

Where [2] appears, read: cAMP, membranes with human GLP-1 receptor, mean value, read-out: GLP1cAMPma (3693) [EC50 (nM)] Mean Value.

Like-named read-outs stand apart in the source and are kept apart here. Starred links: 1 amine or outer side, 2 acyl side, 3 side chain; linkers in the order of their positions; H or OH if unused. Residues, ends and D or L forms follow the SMILES beside them. Groups on a side chain read outwards from the residue. *: point of attachment. Palmitoyl(16-(5-tetrazolyl)) = O=C(CCCCCCCCCCCCCCCc1nnn[nH]1)*; C18 diacid = O=C(O)CCCCCCCCCCCCCCCCC(=O)*; γGlu = O=C(O)[C@H](CCC(=O)[*:2])N[*:1]; Stearoyl = CCCCCCCCCCCCCCCCCC(=O)*; AEEA = NCCOCCOCC(=O)O

From patent US9012398B2, “Acylated exendin-4 compounds” (priority 2006, dated 2015) come the findings set out here.

As for `CCCCCCCCCCCCCCCCCC(=O)NCCOCCOCC(=O)NCCOCCOCC(=O)NCCOCCOCC(=O)NCCCC[C@H](NC(=O)[C@@H](NC(=O)[C@H](C)NC(=O)[C@H](CCC(=O)O)NC(=O)[C@H](CCC(=O)O)NC(=O)[C@H](CCC(=O)O)NC(=O)[C@H](CC(C)C)NC(=O)[C@H](CCC(N)=O)NC(=O)[C@H](CCCNC(=N)N)NC(=O)[C@H](CO)NC(=O)[C@H](CC(C)C)NC(=O)[C@H](CC(=O)O)NC(=O)[C@H](CO)NC(=O)[C@@H](NC(=O)[C@H](Cc1ccccc1)NC(=O)[C@@H](NC(=O)CNC(=O)[C@H](CCC(=O)O)NC(=O)CNC(=O)[C@@H](N)Cc1c[nH]cn1)[C@@H](C)O)[C@@H](C)O)C(C)C)C(=O)N[C@@H](CC(C)C)C(=O)N[C@@H](Cc1ccccc1)C(=O)N[C@H](C(=O)N[C@@H](CCC(=O)O)C(=O)N[C@@H](Cc1c[nH]c2ccccc12)C(=O)N[C@@H](CC(C)C)C(=O)N[C@@H](CCCNC(=N)N)C(=O)N[C@@H](CCCNC(=N)N)C(=O)NCC(=O)NCC(=O)N1CCC[C@H]1C(=O)N[C@@H](CO)C(=O)N[C@@H](CO)C(=O)NCC(=O)N[C@@H](C)C(=O)N1CCC[C@H]1C(=O)N1CCC[C@H]1C(=O)N1CCC[C@H]1C(=O)N[C@@H](CO)C(N)=O)[C@@H](C)CC` [Example 5, N-ε^20-(2-(2-(2-(2-(2-(2-(2-(2-(2-(Octadecanoylamino)ethoxy)ethoxy)acetylamino)ethoxy)ethoxy)acetyl-amino)ethoxy)ethoxy)acety))[Arg^12,27,28,Leu^14,Lys^20 Exendin-4(1-39)amide] (H-HGEGTFTSDLSRQLEEEAVK([AEEA-AEEA-AEEA-Stearoyl])LFIEWLRRGGPSSGAPPPS-NH2; N-terminus assumed), the “Delta AUC for blood glucose after 30 nmol/kg in db/db mice, 48 hours” value (shortened to “Delta AUC for blood glucose”) with db/db mice is reported as −410 ± 111, *** mM × hour. The EC50 on human GLP-1 receptor amounted to 0.007 nM.

As to `CC[C@H](C)[C@H](NC(=O)[C@H](Cc1ccccc1)NC(=O)[C@H](CC(C)C)NC(=O)[C@H](CCCNC(=N)N)NC(=O)[C@@H](NC(=O)[C@H](C)NC(=O)[C@H](CCC(=O)O)NC(=O)[C@H](CCC(=O)O)NC(=O)[C@H](CCC(=O)O)NC(=O)[C@H](CC(C)C)NC(=O)[C@H](CCC(N)=O)NC(=O)[C@H](CCCNC(=N)N)NC(=O)[C@H](CO)NC(=O)[C@H](CC(C)C)NC(=O)[C@H](CC(=O)O)NC(=O)[C@H](CO)NC(=O)[C@@H](NC(=O)[C@H](Cc1ccccc1)NC(=O)[C@@H](NC(=O)CNC(=O)[C@H](CCC(=O)O)NC(=O)CNC(=O)[C@@H](N)Cc1c[nH]cn1)[C@@H](C)O)[C@@H](C)O)C(C)C)C(=O)N[C@@H](CCC(=O)O)C(=O)N[C@@H](Cc1c[nH]c2ccccc12)C(=O)N[C@@H](CC(C)C)C(=O)N[C@@H](CCCNC(=N)N)C(=O)N[C@@H](CC(N)=O)C(=O)NCC(=O)NCC(=O)N1CCC[C@H]1C(=O)N[C@@H](CO)C(=O)N[C@@H](CO)C(=O)N[C@@H](CCCCNC(=O)COCCOCCNC(=O)CC[C@H](NC(=O)CCCCCCCCCCCCCCCc1nnn[nH]1)C(=O)O)C(=O)N[C@@H](C)C(=O)N1CCC[C@H]1C(=O)N1CCC[C@H]1C(=O)N1CCC[C@H]1C(=O)N[C@@H](CO)C(N)=O` [Example 9] (H-HGEGTFTSDLSRQLEEEAVRLFIEWLRNGGPSSK([AEEA-γGlu-Palmitoyl(16-(5-tetrazolyl))])APPPS-NH2), the “Delta AUC for blood glucose” value with db/db mice is given as −395 ± 222, *** mM × hour. Further, the EC50 at human GLP-1 receptor (setting [2]) was 0.61 nM.

On to `CC[C@H](C)[C@H](NC(=O)[C@H](Cc1ccccc1)NC(=O)[C@H](CC(C)C)NC(=O)[C@H](CCCNC(=N)N)NC(=O)[C@@H](NC(=O)[C@H](C)NC(=O)[C@H](CCC(=O)O)NC(=O)[C@H](CCC(=O)O)NC(=O)[C@H](CCC(=O)O)NC(=O)[C@H](CC(C)C)NC(=O)[C@H](CCC(N)=O)NC(=O)[C@H](CCCNC(=N)N)NC(=O)[C@H](CO)NC(=O)[C@H](CC(C)C)NC(=O)[C@H](CC(=O)O)NC(=O)[C@H](CO)NC(=O)[C@@H](NC(=O)[C@H](Cc1ccccc1)NC(=O)[C@@H](NC(=O)CNC(=O)[C@H](CCC(=O)O)NC(=O)CNC(=O)[C@@H](N)Cc1c[nH]cn1)[C@@H](C)O)[C@@H](C)O)C(C)C)C(=O)N[C@@H](CCC(=O)O)C(=O)N[C@@H](Cc1c[nH]c2ccccc12)C(=O)N[C@@H](CC(C)C)C(=O)N[C@@H](CCCNC(=N)N)C(=O)N[C@@H](CC(N)=O)C(=O)NCC(=O)NCC(=O)N1CCC[C@H]1C(=O)N[C@@H](CO)C(=O)N[C@@H](CO)C(=O)N[C@@H](CCCCNC(=O)COCCOCCNC(=O)CCCCCCCCCCCCCCCCC(=O)O)C(=O)N[C@@H](C)C(=O)N1CCC[C@H]1C(=O)N1CCC[C@H]1C(=O)N1CCC[C@H]1C(=O)N[C@@H](CO)C(N)=O` [Example 8, N-ε^34-(2-(2-(2-(17-carboxyheptadecanoylamino)ethoxy)ethoxy)acetyl) [Leu^14,Arg^12,27,Lys^34]Exendin-4(1-39)amide] (H-HGEGTFTSDLSRQLEEEAVRLFIEWLRNGGPSSK([AEEA-C18 diacid])APPPS-NH2), for which the “Delta AUC for blood glucose” value with db/db mice was −500 ± 122, *** mM × hour. This molecule had an EC50 at human GLP-1 receptor of 0.44 nM.

For `CCCCCCCCCCCCCCCCCC(=O)N[C@@H](CCC(=O)NCCOCCOCC(=O)NCCOCCOCC(=O)NCCCC[C@H](NC(=O)[C@H](CCC(N)=O)NC(=O)[C@H](CCCNC(=N)N)NC(=O)[C@H](CO)NC(=O)[C@H](CC(C)C)NC(=O)[C@H](CC(=O)O)NC(=O)[C@H](CO)NC(=O)[C@@H](NC(=O)[C@H](Cc1ccccc1)NC(=O)[C@@H](NC(=O)CNC(=O)[C@H](CCC(=O)O)NC(=O)CNC(=O)[C@@H](N)Cc1c[nH]cn1)[C@@H](C)O)[C@@H](C)O)C(=O)N[C@@H](CCC(=O)O)C(=O)N[C@@H](CCC(=O)O)C(=O)N[C@@H](CCC(=O)O)C(=O)N[C@@H](C)C(=O)N[C@H](C(=O)N[C@@H](CCCNC(=N)N)C(=O)N[C@@H](CC(C)C)C(=O)N[C@@H](Cc1ccccc1)C(=O)N[C@H](C(=O)N[C@@H](CCC(=O)O)C(=O)N[C@@H](Cc1c[nH]c2ccccc12)C(=O)N[C@@H](CC(C)C)C(=O)N[C@H](C(=O)N[C@@H](CCCNC(=N)N)C(=O)NCC(=O)NCC(=O)N1CCC[C@H]1C(=O)N[C@@H](CO)C(=O)N[C@@H](CO)C(=O)NCC(=O)N[C@@H](C)C(=O)N1CCC[C@H]1C(=O)N1CCC[C@H]1C(=O)N1CCC[C@H]1C(=O)N[C@@H](CO)C(N)=O)C(C)C)[C@@H](C)CC)C(C)C)C(=O)O` [Example 29] (H-HGEGTFTSDLSRQK([AEEA-AEEA-γGlu-Stearoyl])EEEAVRLFIEWLVRGGPSSGAPPPS-NH2; N-terminus assumed), in series [1], the “Formation rate of peptide related impurities at 40° C.” value is reported as 2.0 %/week. On human GLP-1 receptor (setting [2]), the EC50 came out at 0.059 nM.

The term EC50 denotes the concentration giving half of the maximal effect.
